Test results as given in ChEMBL document CHEMBL4257566, “Design, synthesis and structure-based optimization of novel isoxazole-containing benzamide derivatives as FtsZ modulators” (Eur J Med Chem, 2018).
≈ marks a conversion by molar mass, not a printed value.

Key:
Assay type in all cases: functional
Bacillus pumilus = assay: Antibacterial activity against Bacillus pumilus CMCC63202 after 24 hrs by broth microdilution based CLSI method; conditions: CMCC63202, 24 h
Escherichia coli = assay: Antibacterial activity against Escherichia coli ATCC 25922 after 24 hrs by broth microdilution based CLSI method; conditions: ATCC 25922, 24 h
Bacillus subtilis = assay: Antibacterial activity against Bacillus subtilis ATCC 9372 after 24 hrs by broth microdilution based CLSI method; conditions: ATCC 9372, 24 h
Staphylococcus aureus [1] = assay: Antibacterial activity against clinical isolate of penicillin-resistant Staphylococcus aureus after 24 hrs by broth microdilution based CLSI method
Staphylococcus aureus [2] = assay: Antibacterial activity against Staphylococcus aureus ATCC 25923 after 24 hrs by broth microdilution based CLSI method; conditions: ATCC 25923, 24 h
Pseudomonas aeruginosa = assay: Antibacterial activity against Pseudomonas aeruginosa ATCC 27853 after 24 hrs by broth microdilution based CLSI method; conditions: ATCC 27853, 24 h
Staphylococcus aureus [3] = assay: Antibacterial activity against methicillin-resistant Staphylococcus aureus ATCC 43300 after 24 hrs by broth microdilution based CLSI method; conditions: ATCC 43300, 24 h

Structure (SMILES)	MIC (Bacillus pumilus) [µg/mL]	MIC (Escherichia coli) [µg/mL]	MIC (Bacillus subtilis) [µg/mL]	MIC (Staphylococcus aureus [1]) [µg/mL]	MIC (Staphylococcus aureus [2]) [µg/mL]	MIC (Pseudomonas aeruginosa) [µg/mL]	MIC (Staphylococcus aureus [3]) [µg/mL]
NC(=O)c1c(F)ccc(OCc2cc(-c3ccc(Cl)cc3Cl)no2)c1F	0.5 (≈ 1.25 µM)	> 64	0.5 (≈ 1.25 µM)	> 64	8 (≈ 20 µM)	> 64	4 (≈ 10 µM)
NC(=O)c1c(F)ccc(OCc2noc(-c3ccc(Cl)cc3)c2Br)c1F	> 64	> 64	> 64	> 64	> 64	> 64	> 64
CCCOc1ccc(-c2cc(COc3ccc(F)c(C(N)=O)c3F)no2)cc1	> 64	> 64	> 64	> 64	> 64	> 64	> 64
Cc1ccc(-c2cc(COc3ccc(F)c(C(N)=O)c3F)no2)cc1	> 64	> 64	64 (≈ 186 µM)	> 64	> 64	> 64	> 64
CC(C)(C)c1ccc(-c2cc(CCOc3ccc(F)c(C(N)=O)c3F)no2)cc1	> 64	> 64	> 64	> 64	> 64	> 64	> 64
CCCCOc1cccc(-c2cc(COc3ccc(F)c(C(N)=O)c3F)on2)c1	> 64	> 64	64 (≈ 159 µM)	> 64	> 64	> 64	> 64
CCCOc1cccc(-c2cc(COc3ccc(F)c(C(N)=O)c3F)no2)c1	> 64	> 64	4 (≈ 10.3 µM)	> 64	> 64	> 64	> 64
NC(=O)c1c(F)ccc(OCc2cc(-c3ccc(Cl)cc3)on2)c1F	> 64	> 64	64 (≈ 175 µM)	> 64	> 64	> 64	> 64
CCCCCc1ccc(-c2cc(COc3ccc(F)c(C(N)=O)c3F)on2)cc1	> 64	> 64	1 (≈ 2.5 µM)	> 64	> 64	> 64	> 64
CCOc1ccc(-c2cc(COc3ccc(F)c(C(N)=O)c3F)no2)cc1	> 64	> 64	> 64	> 64	> 64	> 64	> 64
NC(=O)c1c(F)ccc(OCc2cc(-c3ccc(-c4cccc5ccccc45)cc3)no2)c1F	> 64	> 64	> 64	> 64	> 64	> 64	> 64
NC(=O)c1c(F)ccc(OCc2cc(-c3cccc(Cl)c3)no2)c1F	> 64	> 64	8 (≈ 21.9 µM)	> 64	> 64	> 64	> 64
NC(=O)c1c(F)ccc(OCc2cc(-c3ccc(Cl)cc3)no2)c1F	> 64	> 64	4 (≈ 11 µM)	> 64	> 64	> 64	> 64
Cc1cccc(-c2cc(COc3ccc(F)c(C(N)=O)c3F)no2)c1	> 64	> 64	32 (≈ 92.9 µM)	> 64	> 64	> 64	> 64
NC(=O)c1c(F)ccc(OCc2cc(-c3cccs3)no2)c1F	> 64	> 64	32 (≈ 95.1 µM)	> 64	> 64	> 64	> 64
NC(=O)c1c(F)ccc(OCc2cc(-c3ccccc3)on2)c1F	> 64	> 64	64 (≈ 194 µM)	> 64	> 64	> 64	> 64
NC(=O)c1c(F)ccc(OCc2cc(-c3ccc(C4CCCCC4)cc3)no2)c1F	> 64	> 64	> 64	> 64	> 64	> 64	> 64
COc1cc(-c2cc(COc3ccc(F)c(C(N)=O)c3F)on2)cc(OC)c1OC	> 64	> 64	> 64	> 64	> 64	> 64	> 64
NC(=O)c1c(F)ccc(OCc2cc(-c3ccc(-c4ccccc4)cc3)no2)c1F	> 64	> 64	> 64	> 64	> 64	> 64	> 64
N#Cc1ccc(-c2cc(COc3ccc(F)c(C(N)=O)c3F)on2)cc1	> 64	> 64	64 (≈ 180 µM)	> 64	> 64	> 64	> 64
